Measurements reported in ChEMBL document CHEMBL5212743, “Selectivity Literature for EUbOPEN Chemogenomics Library wave 3” (2023).
Blank lines part the entries; values can stand above or below the compound they belong to.

Legend:
[1] = target: T1, Gamma-aminobutyric acid receptor subunit alpha-1 (Homo sapiens) (UniProt P14867); assay: Selectivity interaction (GPCR panel (PDSP screen)) EUB0000329a GABRA1; details: at 10 µM
T1 sequence (whole entry): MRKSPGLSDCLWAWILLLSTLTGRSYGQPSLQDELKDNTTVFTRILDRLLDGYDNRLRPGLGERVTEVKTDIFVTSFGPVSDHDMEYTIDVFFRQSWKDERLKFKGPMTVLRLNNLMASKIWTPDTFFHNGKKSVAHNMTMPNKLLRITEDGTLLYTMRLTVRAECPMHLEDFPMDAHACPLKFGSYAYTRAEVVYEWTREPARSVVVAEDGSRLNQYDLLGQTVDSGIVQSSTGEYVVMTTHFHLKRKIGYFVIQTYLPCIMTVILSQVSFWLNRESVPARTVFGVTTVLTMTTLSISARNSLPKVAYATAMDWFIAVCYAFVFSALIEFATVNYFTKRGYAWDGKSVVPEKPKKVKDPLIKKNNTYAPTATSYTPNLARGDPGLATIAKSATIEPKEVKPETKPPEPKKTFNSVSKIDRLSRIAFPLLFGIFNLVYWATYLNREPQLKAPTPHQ

[2] = target: Adenosine receptor A2a (Homo sapiens) (UniProt P29274); assay: Selectivity interaction (Enzyme panel (kinases, GPCRs, HDACs, phosphatases)) EUB0000329a ADORA2A; details: at 10 µM
[3] = target: Phosphatidylinositol 4,5-bisphosphate 3-kinase catalytic subunit alpha isoform (Homo sapiens, UniProt P42336); details: at 1 µM
[4] = target: T2, Phosphatidylinositol 4,5-bisphosphate 3-kinase catalytic subunit delta isoform (Homo sapiens) (UniProt O00329); details: at 1 µM
T2 sequence (whole entry): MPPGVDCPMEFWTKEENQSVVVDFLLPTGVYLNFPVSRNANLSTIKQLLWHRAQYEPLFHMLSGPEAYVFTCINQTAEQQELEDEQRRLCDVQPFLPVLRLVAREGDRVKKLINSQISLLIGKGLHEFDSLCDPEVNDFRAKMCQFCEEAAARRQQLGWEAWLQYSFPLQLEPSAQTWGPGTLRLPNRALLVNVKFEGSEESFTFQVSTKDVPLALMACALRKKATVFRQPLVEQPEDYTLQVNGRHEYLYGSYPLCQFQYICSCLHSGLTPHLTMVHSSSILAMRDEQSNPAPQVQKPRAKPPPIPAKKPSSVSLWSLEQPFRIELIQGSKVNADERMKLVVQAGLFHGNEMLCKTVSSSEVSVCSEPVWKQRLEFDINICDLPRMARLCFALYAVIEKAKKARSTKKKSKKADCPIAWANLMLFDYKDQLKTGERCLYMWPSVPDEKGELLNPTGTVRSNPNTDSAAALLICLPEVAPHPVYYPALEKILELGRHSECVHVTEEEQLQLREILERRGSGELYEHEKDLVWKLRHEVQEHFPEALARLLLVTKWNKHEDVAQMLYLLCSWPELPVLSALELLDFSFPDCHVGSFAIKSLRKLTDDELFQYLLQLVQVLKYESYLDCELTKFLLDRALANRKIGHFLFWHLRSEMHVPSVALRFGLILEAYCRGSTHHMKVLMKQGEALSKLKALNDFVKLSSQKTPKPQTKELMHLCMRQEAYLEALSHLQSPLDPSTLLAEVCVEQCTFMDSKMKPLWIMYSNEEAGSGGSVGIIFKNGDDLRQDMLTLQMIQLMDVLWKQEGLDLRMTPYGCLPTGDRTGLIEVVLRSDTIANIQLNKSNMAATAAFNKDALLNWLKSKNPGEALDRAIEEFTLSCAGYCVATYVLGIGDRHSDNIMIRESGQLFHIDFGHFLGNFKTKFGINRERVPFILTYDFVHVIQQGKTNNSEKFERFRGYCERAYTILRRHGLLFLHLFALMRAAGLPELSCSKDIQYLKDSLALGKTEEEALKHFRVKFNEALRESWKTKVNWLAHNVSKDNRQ

[5] = target: T3, Alpha-1B adrenergic receptor (Homo sapiens, UniProt P35368); assay: Selectivity interaction (GPCR panel (PDSP screen)) EUB0000300bCl ADRA1B
T3 sequence (P35368 whole entry): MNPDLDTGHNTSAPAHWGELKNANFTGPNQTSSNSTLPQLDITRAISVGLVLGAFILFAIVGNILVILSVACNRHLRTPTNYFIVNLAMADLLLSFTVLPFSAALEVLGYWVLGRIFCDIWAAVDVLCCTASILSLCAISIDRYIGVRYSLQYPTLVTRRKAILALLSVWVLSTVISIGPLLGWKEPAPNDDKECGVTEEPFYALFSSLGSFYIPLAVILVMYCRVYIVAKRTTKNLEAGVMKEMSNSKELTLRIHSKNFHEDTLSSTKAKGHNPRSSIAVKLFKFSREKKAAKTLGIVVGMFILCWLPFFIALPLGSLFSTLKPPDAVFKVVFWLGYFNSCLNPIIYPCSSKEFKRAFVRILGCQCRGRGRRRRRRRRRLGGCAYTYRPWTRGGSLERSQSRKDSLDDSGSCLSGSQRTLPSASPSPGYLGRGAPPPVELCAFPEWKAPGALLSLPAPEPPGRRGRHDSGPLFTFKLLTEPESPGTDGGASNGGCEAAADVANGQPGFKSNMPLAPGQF

[6] = target: T4, Alpha-1A adrenergic receptor (Homo sapiens) (UniProt P35348); assay: (§1) Selectivity interaction (GPCR panel (PDSP screen)) EUB0000300bCl ADRA1A; details: at 10 µM
T4 sequence (whole entry): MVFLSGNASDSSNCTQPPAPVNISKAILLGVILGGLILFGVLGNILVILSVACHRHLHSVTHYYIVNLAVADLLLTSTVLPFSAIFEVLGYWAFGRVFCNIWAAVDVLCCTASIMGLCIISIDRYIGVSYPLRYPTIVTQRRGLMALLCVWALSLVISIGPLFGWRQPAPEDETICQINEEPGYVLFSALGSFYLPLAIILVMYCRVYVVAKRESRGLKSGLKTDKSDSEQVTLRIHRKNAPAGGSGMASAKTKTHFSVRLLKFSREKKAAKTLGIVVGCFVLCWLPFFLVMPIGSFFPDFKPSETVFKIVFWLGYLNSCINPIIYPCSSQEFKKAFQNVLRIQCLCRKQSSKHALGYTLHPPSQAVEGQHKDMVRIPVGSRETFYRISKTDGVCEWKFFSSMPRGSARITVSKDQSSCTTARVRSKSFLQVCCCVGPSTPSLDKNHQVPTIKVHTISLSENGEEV

[7] = target: T5, Alpha-1A adrenergic receptor (Homo sapiens, UniProt P35348); assay: as §1
T5 sequence (P35348 whole entry): T4 sequence (whole entry)

[8] = target: Tyrosine-protein kinase receptor TYRO3 (Homo sapiens) (UniProt Q06418); assay: Selectivity interaction (KinomeScan (DiscoverX)) EUB0000300bCl TYRO3; details: at 1 µM
[9] = target: Mitogen-activated protein kinase 6 (Homo sapiens) (UniProt Q16659); assay: Selectivity interaction (KinomeScan (DiscoverX)) EUB0000300bCl MAPK6; details: at 1 µM
[10] = target: T6, Alpha-2B adrenergic receptor (Homo sapiens) (UniProt P18089); assay: Selectivity interaction (GPCR panel (PDSP screen)) EUB0000300bCl ADRA2B; details: at 10 µM
T6 sequence (whole entry): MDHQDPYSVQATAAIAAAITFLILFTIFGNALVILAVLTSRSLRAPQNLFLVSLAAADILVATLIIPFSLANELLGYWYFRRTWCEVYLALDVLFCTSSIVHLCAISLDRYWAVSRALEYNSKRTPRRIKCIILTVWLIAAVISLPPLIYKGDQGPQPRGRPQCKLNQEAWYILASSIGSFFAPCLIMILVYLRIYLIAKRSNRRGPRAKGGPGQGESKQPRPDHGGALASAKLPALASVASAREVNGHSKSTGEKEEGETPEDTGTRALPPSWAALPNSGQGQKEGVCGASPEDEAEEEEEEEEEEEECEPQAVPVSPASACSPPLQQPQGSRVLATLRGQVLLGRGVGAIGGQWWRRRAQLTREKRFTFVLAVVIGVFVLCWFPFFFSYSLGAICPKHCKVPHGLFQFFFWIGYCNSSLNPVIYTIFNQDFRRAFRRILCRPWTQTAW

[11] = target: Serine/threonine-protein kinase Nek1 (Homo sapiens) (UniProt Q96PY6); assay: Selectivity interaction (KinomeScan (DiscoverX)) EUB0000711a NEK1; details: at 100 nM
[12] = target: Leucine-rich repeat serine/threonine-protein kinase 2 (Homo sapiens, UniProt Q5S007); assay: Selectivity interaction (KinomeScan (DiscoverX)) EUB0000711a LRRK2; details: at 100 nM
[13] = target: Serine/threonine-protein kinase 38-like (Homo sapiens, UniProt Q9Y2H1); assay: Selectivity interaction (KinomeScan (DiscoverX)) EUB0000711a STK38L; details: at 100 nM
[14] = target: Protein arginine N-methyltransferase 3 (Homo sapiens, UniProt O60678); assay: Selectivity interaction (HMT panel) EUB0000209b PRMT3; details: at 1 µM
[15] = target: Calcium/calmodulin-dependent protein kinase type IV (Homo sapiens) (UniProt Q16566); assay: Selectivity interaction (Kinase panel) EUB0000209b CAMK4; details: at 10 µM
[16] = target: Serine/threonine-protein kinase 33 (Homo sapiens, UniProt Q9BYT3); assay: Selectivity interaction (Kinase panel (International centre for protein kinase profiling)) EUB0000627a STK33; details: at 1 µM
[17] = target: T7, Serine/threonine-protein kinase ULK2 (Homo sapiens) (UniProt Q8IYT8); assay: Selectivity interaction (Kinase panel (International centre for protein kinase profiling)) EUB0000627a ULK2; details: at 1 µM
T7 sequence (whole entry): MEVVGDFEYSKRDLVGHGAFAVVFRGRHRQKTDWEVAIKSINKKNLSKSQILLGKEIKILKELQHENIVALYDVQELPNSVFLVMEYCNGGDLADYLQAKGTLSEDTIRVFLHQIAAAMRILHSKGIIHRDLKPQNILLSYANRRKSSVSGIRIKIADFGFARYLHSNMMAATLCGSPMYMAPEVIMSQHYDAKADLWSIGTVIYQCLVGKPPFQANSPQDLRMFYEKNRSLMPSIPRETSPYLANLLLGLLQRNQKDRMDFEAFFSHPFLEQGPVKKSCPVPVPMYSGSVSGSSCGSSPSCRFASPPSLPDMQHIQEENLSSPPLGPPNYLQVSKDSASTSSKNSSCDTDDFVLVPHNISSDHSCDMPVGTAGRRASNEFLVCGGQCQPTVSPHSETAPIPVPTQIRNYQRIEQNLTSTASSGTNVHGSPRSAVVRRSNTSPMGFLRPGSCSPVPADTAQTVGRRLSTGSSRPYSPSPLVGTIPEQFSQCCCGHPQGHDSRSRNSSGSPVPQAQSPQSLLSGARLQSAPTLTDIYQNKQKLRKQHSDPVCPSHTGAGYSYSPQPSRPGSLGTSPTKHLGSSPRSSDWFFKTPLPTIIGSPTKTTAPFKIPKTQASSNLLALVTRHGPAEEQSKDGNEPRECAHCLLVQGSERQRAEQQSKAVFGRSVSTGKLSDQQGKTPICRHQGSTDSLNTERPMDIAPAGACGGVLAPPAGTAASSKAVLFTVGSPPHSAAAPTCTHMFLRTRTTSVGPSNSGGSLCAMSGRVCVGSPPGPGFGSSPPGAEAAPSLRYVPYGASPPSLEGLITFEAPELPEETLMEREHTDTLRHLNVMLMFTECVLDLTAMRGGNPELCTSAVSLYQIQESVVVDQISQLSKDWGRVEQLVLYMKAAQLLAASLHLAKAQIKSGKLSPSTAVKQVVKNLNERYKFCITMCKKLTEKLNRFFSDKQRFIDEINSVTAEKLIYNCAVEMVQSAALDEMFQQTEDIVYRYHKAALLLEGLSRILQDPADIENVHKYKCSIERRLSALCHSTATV

[18] = target: Mast/stem cell growth factor receptor Kit (Homo sapiens, UniProt P10721); assay: (§2) Selectivity interaction (KinomeScan (DiscoverX)) EUB0000132b KIT; details: at 1 µM
[19] = system: Mast/stem cell growth factor receptor Kit (Homo sapiens), P10721 [V559D]; assay: as §2; details: at 1 µM
[20] = target: Epithelial discoidin domain-containing receptor 1 (Homo sapiens, UniProt Q08345); details: at 1 µM
[21] = target: Myosin light chain kinase family member 4 (Homo sapiens) (UniProt Q86YV6); assay: Selectivity interaction (KinomeScan (DiscoverX)) EUB0000132b MYLK4; details: at 1 µM
[22] = target: Ribosomal protein S6 kinase alpha-6 (Homo sapiens) (UniProt Q9UK32); assay: Selectivity interaction (KinomeScan (DiscoverX)) EUB0000132b RPS6KA6; details: at 1 µM
[23] = target: Discoidin domain-containing receptor 2 (Homo sapiens) (UniProt Q16832); assay: Selectivity interaction (KinomeScan (DiscoverX)) EUB0000132b DDR2; details: at 1 µM
[24] = target: Mitogen-activated protein kinase kinase kinase 20 (Homo sapiens) (UniProt Q9NYL2); assay: Selectivity interaction (KinomeScan (DiscoverX)) EUB0000132b MAP3K20; details: at 1 µM
[25] = target: Protein-tyrosine kinase 6 (Homo sapiens) (UniProt Q13882); details: at 1 µM
Protein-tyrosine kinase 6 (Homo sapiens), sequence (Q13882 whole entry, looked up): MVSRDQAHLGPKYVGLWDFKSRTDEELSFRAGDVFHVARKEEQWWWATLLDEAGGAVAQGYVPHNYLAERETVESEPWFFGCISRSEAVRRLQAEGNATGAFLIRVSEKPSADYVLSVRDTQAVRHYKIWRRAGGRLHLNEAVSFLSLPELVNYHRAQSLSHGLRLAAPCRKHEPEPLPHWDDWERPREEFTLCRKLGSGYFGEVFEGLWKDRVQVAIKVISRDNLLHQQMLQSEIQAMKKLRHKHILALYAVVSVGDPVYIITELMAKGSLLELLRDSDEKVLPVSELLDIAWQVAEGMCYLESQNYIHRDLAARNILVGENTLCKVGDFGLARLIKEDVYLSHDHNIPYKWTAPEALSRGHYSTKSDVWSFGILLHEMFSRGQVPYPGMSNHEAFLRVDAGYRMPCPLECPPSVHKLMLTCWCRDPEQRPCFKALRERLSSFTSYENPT

Mast/stem cell growth factor receptor Kit, sequence (P10721 whole entry): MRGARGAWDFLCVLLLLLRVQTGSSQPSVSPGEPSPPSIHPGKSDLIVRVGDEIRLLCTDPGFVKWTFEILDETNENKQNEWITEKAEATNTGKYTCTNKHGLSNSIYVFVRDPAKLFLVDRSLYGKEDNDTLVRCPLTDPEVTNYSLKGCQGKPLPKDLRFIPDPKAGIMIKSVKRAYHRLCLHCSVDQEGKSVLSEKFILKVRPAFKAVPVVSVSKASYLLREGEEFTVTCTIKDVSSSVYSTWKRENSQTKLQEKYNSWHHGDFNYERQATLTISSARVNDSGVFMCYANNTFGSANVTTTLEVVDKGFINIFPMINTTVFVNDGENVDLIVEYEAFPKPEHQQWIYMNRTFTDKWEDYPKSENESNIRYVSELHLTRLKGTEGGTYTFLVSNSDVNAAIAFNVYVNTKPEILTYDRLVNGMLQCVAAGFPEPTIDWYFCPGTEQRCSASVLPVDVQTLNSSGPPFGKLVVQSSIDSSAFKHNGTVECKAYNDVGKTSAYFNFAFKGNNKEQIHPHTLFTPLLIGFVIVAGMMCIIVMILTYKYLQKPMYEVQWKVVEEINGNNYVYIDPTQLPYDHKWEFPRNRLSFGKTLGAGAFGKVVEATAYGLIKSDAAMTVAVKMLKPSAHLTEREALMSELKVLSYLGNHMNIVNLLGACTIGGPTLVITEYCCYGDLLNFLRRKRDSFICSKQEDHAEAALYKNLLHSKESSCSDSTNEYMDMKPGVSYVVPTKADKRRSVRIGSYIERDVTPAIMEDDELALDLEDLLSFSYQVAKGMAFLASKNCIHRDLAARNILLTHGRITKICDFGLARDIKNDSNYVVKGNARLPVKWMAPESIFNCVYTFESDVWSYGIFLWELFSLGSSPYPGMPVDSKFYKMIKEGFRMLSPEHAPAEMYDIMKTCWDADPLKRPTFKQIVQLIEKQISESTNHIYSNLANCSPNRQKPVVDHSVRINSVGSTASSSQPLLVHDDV
Serine/threonine-protein kinase 33, sequence (Q9BYT3 whole entry, looked up): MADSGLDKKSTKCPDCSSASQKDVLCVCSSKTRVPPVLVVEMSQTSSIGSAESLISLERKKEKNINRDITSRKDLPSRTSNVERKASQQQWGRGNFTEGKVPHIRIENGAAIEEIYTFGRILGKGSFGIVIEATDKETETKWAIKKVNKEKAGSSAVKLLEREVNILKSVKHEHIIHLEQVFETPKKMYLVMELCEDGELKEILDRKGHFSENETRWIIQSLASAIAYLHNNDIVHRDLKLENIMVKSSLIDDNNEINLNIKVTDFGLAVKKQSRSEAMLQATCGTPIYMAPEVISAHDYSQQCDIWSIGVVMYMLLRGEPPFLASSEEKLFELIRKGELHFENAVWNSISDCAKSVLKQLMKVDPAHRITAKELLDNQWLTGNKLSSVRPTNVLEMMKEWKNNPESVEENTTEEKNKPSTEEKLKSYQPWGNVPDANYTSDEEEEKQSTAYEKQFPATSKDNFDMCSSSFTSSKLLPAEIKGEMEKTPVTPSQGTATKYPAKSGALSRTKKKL
Calcium/calmodulin-dependent protein kinase type IV (Homo sapiens), sequence (Q16566 whole entry): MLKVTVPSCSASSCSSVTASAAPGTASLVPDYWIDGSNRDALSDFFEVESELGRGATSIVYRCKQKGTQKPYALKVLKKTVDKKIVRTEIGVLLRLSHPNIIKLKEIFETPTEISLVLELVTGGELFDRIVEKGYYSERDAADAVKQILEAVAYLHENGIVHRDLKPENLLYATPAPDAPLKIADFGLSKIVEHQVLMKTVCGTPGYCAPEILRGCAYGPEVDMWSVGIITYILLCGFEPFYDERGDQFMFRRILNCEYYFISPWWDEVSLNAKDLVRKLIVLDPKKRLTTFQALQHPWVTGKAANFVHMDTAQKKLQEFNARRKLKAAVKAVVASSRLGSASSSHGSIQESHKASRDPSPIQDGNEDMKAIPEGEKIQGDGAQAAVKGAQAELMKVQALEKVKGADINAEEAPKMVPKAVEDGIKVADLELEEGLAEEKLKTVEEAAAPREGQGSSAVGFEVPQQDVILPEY
Mast/stem cell growth factor receptor Kit (Homo sapiens), P10721 [V559D], sequence (P10721 whole entry V559D, the tested form may be a part): as the sequence (P10721 whole entry) above, with V559D counted along it
Mitogen-activated protein kinase kinase kinase 20 (Homo sapiens), sequence (Q9NYL2 2-800 limits assumed): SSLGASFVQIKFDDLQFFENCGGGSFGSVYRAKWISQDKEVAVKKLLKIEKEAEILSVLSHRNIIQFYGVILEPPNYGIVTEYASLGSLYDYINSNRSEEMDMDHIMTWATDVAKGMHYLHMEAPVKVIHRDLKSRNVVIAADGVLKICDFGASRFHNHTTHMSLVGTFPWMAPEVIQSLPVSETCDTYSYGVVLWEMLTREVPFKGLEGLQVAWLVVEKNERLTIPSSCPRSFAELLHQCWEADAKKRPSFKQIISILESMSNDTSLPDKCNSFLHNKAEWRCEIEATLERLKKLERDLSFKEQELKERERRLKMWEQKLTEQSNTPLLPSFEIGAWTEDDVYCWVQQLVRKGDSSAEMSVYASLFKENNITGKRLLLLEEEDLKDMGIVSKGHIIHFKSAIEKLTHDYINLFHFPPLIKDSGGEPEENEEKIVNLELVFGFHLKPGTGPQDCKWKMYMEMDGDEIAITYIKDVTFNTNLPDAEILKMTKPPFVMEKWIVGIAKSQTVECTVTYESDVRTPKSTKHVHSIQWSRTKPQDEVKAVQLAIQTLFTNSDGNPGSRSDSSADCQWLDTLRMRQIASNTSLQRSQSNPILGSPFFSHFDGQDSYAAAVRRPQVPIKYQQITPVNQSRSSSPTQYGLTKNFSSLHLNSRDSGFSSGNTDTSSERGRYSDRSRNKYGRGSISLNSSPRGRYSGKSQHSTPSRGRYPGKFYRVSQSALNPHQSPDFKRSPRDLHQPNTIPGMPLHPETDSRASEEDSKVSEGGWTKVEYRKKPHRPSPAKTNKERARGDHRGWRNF
Phosphatidylinositol 4,5-bisphosphate 3-kinase catalytic subunit alpha isoform, sequence (P42336 whole entry, canonical isoform): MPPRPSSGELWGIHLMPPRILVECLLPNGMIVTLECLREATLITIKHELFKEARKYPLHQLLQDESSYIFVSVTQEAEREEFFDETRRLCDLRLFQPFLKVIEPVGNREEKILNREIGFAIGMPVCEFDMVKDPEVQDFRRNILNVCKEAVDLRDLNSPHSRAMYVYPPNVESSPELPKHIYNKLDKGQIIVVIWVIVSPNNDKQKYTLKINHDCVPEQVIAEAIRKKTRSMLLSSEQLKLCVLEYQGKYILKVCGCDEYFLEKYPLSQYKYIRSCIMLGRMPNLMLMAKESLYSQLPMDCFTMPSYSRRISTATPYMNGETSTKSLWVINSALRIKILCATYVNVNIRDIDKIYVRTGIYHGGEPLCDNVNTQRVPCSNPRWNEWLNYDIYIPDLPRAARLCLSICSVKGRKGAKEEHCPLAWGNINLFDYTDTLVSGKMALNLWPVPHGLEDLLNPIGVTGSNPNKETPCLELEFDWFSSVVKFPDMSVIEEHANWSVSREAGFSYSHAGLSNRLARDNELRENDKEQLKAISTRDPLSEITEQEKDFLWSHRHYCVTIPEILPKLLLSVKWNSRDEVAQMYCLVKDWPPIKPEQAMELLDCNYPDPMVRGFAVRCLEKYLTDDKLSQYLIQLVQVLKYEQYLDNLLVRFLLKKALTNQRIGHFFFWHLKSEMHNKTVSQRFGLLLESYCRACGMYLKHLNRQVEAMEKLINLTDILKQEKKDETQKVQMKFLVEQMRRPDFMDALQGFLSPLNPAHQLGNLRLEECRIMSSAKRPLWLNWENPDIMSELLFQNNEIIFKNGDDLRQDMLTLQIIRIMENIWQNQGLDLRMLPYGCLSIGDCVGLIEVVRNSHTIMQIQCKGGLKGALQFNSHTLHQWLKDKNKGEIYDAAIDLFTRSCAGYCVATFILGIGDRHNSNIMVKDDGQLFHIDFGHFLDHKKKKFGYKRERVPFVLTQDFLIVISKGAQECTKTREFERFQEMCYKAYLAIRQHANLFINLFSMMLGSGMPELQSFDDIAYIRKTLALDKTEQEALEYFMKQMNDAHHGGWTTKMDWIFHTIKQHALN
Protein arginine N-methyltransferase 3, sequence (O60678 2-531 limits assumed): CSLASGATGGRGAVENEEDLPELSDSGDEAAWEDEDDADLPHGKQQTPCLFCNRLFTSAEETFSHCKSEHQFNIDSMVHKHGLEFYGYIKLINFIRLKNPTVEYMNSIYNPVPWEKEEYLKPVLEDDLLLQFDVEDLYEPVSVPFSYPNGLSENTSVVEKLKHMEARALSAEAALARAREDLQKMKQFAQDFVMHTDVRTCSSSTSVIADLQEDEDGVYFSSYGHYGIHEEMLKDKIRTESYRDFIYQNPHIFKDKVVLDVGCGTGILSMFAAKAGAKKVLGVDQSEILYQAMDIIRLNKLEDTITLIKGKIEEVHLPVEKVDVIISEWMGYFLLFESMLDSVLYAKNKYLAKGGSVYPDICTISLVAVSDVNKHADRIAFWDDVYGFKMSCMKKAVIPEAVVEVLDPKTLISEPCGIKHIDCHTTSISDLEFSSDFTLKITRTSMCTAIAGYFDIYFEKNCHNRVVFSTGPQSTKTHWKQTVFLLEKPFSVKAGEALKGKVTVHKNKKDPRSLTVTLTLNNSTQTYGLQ

Structure (SMILES): C[C@@H](c1cccc(CN)c1)n1cc(Cl)cc(C(N)=O)c1=N
- Ki [5]: > 1200 nM
- % of inhibition [6]: 84%
- Ki [7]: > 2700 nM
- % of control [8]: 33%
- % of control [9]: 0%
- % of inhibition [10]: 80%

Structure (SMILES): O=C(NCCCC1CCCCC1)c1ccc(CNC(=O)c2cnn(-c3ccccc3)c2C(F)(F)F)cc1
- % of control [11]: 58%
- % of control [12]: 57%
- % of control [13]: 20%

Structure (SMILES): CCCc1cc(C)[nH]c(=O)c1CNC(=O)c1cc(-c2ccc(N3CCN(C(C)C)CC3)nc2)cc2c1cnn2C(C)C
- % activity remaining [14]: > 70%
- % of inhibition [15]: 20%

Structure (SMILES): CCC(=O)Nc1cccc(Oc2nc(Nc3ccc(N4CCN(C)CC4)cc3OC)ncc2Cl)c1
- % of kinase activity [16]: 33%
- % of kinase activity [17]: 37%

Structure (SMILES): Nc1c(C(=O)NCc2ccc(C(=O)NCCCC3CCCCC3)cc2)cnn1-c1ccccc1
- % of control [18]: 7.7%
- % of control [19]: 3%
- % of control [20]: 3%
- % of control [21]: 31%
- % of control [22]: 29%
- % of control [23]: 31%
- % of control [24]: 8.8%

Structure (SMILES): C=CC(=O)N1CCC([C@@H]2CCNc3c(C(N)=O)c(-c4ccc(Oc5ccccc5)cc4)nn32)CC1
- % of inhibition [25]: 99%

Other lines, results leading:

- % of inhibition [1]: 75.7%
- % of inhibition [2]: 49%
Structure (SMILES): O=C(NNS(=O)(=O)c1ccccc1F)c1cc(F)cc(-c2ccccn2)c1

- % of control [3]: 98.6%
- % of control [4]: 97.9%
Structure (SMILES): Cc1nc(-c2cn3c(n2)-c2ccc(-c4cnn(C(C)(C)C(N)=O)c4)cc2OCC3)n(C(C)C)n1
